Reference: patent US20240368163A1, “COMPOUNDS AND METHODS FOR MODULATING SPLICING” (REMIX THERAPEUTICS INC., priority 2021, published 2024)
pIC50: −log10 of the molar value. Like-named read-outs stand apart in the source and are kept apart here.

Legend:
Format in all cases: cell-based, human
HTT [1] = assay: HiBiT protein abundance assay, HTT; conditions: Homo sapiens, K562, 24 h, modified K562 cells
Procedure: (§1) Compounds described herein were used to screen for effects on quantitative protein abundance using a HiBit assay system (Promega). Quantitative protein abundance was determined by measuring the protein levels of HiBit-tagged protein targets expressed in cell culture via luminescence using the Nano-Glo HiBiT Lytic Detection System, which uses a split complementation assay format to reconstitute NanoBiT enzyme to generate a luminescent signal. A protein abundance assay was developed such that endogenous protein targets could be modified with the HiBiT peptide tag and their abundance could be assessed after compound treatment. Briefly, K562 cell lines containing a HiBiT-modification were treated with various compounds described herein (e.g., compounds of Formulas (I), (II), or (III)). After treatment for 24 hours, the protein abundance of a specific target was determined by measuring luminescence.
(§2) Cells were maintained in IMIDM with 10% FBS. Before the assay, cells were diluted with […] growth media (IMIDM+[…] media) and were seeded in a 384-well plate at a density of 10000 cells/well (for each cell line listed in Table 12). Each compound was prepared as a 10-point 3-fold serial dilution in DMSO with the top dose at a final concentration of 10 μM in the well. Unmodified K562 cells were added at the previously specified density with DMSO to serve as an assay baseline and positive control (PC) and DMSO only with the respective modified cell lines was added to the negative control (NC) columns. Final DMSO concentration was kept at or below 0.25%. Treated cell plates were placed in an incubator at 37° C. with 5% CO2 for 24 hours. After 24 hours, 25 μL of Complete HiBit Lytic reagent was added to each well at room temperature (e.g. one plate requiring 10 mL Lytic Buffer, 100 μL LgBiT Protein, 200 μL Lytic Substrate), shaken for 5 minutes at 600 RPM, then left to sit for 10 minutes for signal to stabilize before reading on a Spark Cyto plate reader (Tecan) with a 500 ms measurement time.
(§3) To determine compound effects on protein abundance of each target in Table 12, the percent response for each respective cell line was calculated at each compound concentration as follows:
(§4) For the normalized response at each concentration, a four-parameter logistical regression was fit to the data and the response was interpolated at the 50% value to determine a concentration for protein abundance at 50% (IC50) the untreated control.

MYB [2] = assay: Splicing RT-qPCR assay, MYB mRNA canonical junction (CJ) and alternative junction (AJ); conditions: Homo sapiens; for AC50: increase in AJ mRNA
Procedure: (§5) Compounds described herein were used to modulate RNA transcript abundance in cells. The expression of a target mRNA was measured by detecting the formation of an exon-exon junction in the canonical transcript (CJ). A compound mediated exon-inclusion event was detected by observing an increase in formation of a new junction with an alternative exon (AJ). Real-time qPCR assays were used to detect these splicing switches and interrogate the potency of various compounds towards different target genes. A high-throughput real time quantitative PCR (RT-qPCR) assay was developed to measure these two isoforms of the mRNA (CJ and AJ) for exemplary genes, such as HTT, SMN2, and MYB, together with a control housekeeping gene, GAPDH or GUSB or PPIA, used for normalization. Briefly, the A673 or K562 cell line was treated with various compounds described herein (e.g., compounds of Formula (I)). After treatment, the levels of the HTT, MYB, or SMN2 mRNA targets were determined from each sample of cell lysate by cDNA synthesis followed by qPCR.
(§6) The A673 cell line was cultured in DMEM with 10% FBS. Cells were diluted with full growth media and plated in a 96-well plate (15,000 cells in 100 ul media per well). The plate was incubated at 37° C. with 5% CO2 for 24 hours to allow cells to adhere. An 11-point 3-fold serial dilution of the compounds was made in DMSO then diluted in media in an intermediate plate. Compounds were transferred from the intermediate plate to the cell plate with the top dose at a final concentration of 10 uM in the well. Final DMSO concentration was kept at or below 0.25%. The cell plate was returned to the incubator at 37° C. with 5% CO2 for an additional 24 hours.
(§7) The K562 cell line was cultured in IMDM with 10% FBS. For K562, cells were diluted with full growth media and plated in either a 96-well plate (50,000 cells in 50 uL media per well) or a 384-well plate (8,000-40,000 cells in 45 uL media per well). An 11-point 3-fold serial dilution of the compounds were made in DMSO then diluted in media in an intermediate plate. Compound was transferred from the intermediate plate to the cell plate with the top dose at a final concentration of 10 uM in the well. Final DMSO concentration was kept at or below 0.25%. Final volume was 100 uL for 96-well plate and 50 uL for 384-well plate. The cell plate was then placed in an incubator at 37° C. with 5% CO2 for 24 hours.
(§8) The cells were then gently washed with 50 uL-100 uL cold PBS before proceeding to addition of lysis buffer. 30 uL-50 μL of room temperature lysis buffer with DNAse I (and optionally RNAsin) was added to each well. Cells were shaken/mixed thoroughly at room temperature for 5-10 minutes for lysis to take place and then 3 uL-5 μL of room temperature stop solution was added and wells were shaken/mixed again. After 2-5 minutes, the cell lysate plate was transferred to ice for RT-qPCR reaction setup. The lysates could also be frozen at −80° C. for later use.
(§9) In some cases, a direct lysis buffer was used. An appropriate volume of 3× lysis buffer (10 mM Tris, 150 mM NaCl, 1.5%-2.5% Igepal and 0.1-1 U/uL RNAsin, pH 7.4) was directly added to either K562 or A673 cells in media and mixed by pipetting 3 times. The plates were then incubated at room temperature with shaking/rocking for 20-50 minutes to allow for lysis to take place. After this time, the cell lysate plate was transferred to ice to set up for the RT-qPCR reactions. The lysates could also be frozen at −80° C. for later use.
(§10) To set up 10 uL RT-qPCR reactions, cell lysates were transferred to 384-well qPCR plates containing the master mix according to the table below. The plates were sealed, gently vortexed, and spun down before the run. The volumes were adjusted accordingly in some instances where the reaction was carried in 20 μL. The table below summarizes the components of the RT-qPCR reactions:
(§11) The RT-qPCR reaction was performed using a QuantStudio (ThermoFisher) under the following fast cycling conditions. […]

Target C [3] = assay: HiBiT protein abundance assay, Target C; conditions: Homo sapiens, K562, 24 h, modified K562 cells
Procedure: • Promega Nano-Glo HiBiT Lytic Detection System (cat #N3030) • Coming 384-well TC-treated microplates (cat #3570) • Synthego Engineered Cells Knock-In Clones
as §2, §3, §4

MYB [4] = assay: HiBiT protein abundance assay, MYB; conditions: Homo sapiens, K562, 24 h, modified K562 cells
Procedure: as §1, §2, §3, §4

Target C [5] = assay: Splicing RT-qPCR panel, Target C canonical junction (CJ) mRNA; conditions: Homo sapiens, read-out: Target C IC50 (decrease in CJ mRNA levels)
Procedure: as §5, §6, §7, §8, §9, §10, §11

HTT [6] = assay: Splicing RT-qPCR assay, HTT mRNA canonical junction (CJ) and alternative junction (AJ); conditions: Homo sapiens; for AC50: increase in AJ mRNA
Procedure: as §5, §6, §7, §8, §9, §10, §11

SMN2 = assay: Splicing RT-qPCR panel, SMN2 canonical junction (CJ) mRNA; conditions: Homo sapiens, read-out: SMN2 IC50 (decrease in CJ mRNA levels)
Procedure: as §5, §6, §7, §8, §9, §10, §11

[7] = 24 h, decrease in CJ mRNA, A673 or K562 cells, 24 hours treatment, RT-qPCR, read-out: MYB CJ IC50
[8] = 24 h, A673 or K562 cells, 24 hours treatment, RT-qPCR
[9] = RT-qPCR panel, canonical junction mRNA, compound concentration having 50% response in CJ decrease, read-out: MYB IC50 (decrease in CJ mRNA levels)
[10] = RT-qPCR panel, canonical junction mRNA, compound concentration having 50% response in CJ decrease
[11] = 24 h, decrease in CJ mRNA, A673 or K562 cells, 24 hours treatment, RT-qPCR, read-out: HTT CJ IC50
[12] = RT-qPCR panel, canonical junction mRNA, compound concentration having 50% response in CJ decrease, read-out: HTT IC50 (decrease in CJ mRNA levels)
[13] = gene panel, CJ qPCR, protocol of Example 142, read-out: MYB IC50 (decrease in CJ mRNA levels)
[14] = gene panel, CJ qPCR, protocol of Example 142

| SMILES | pIC50 (HTT [1]; Table 13A) | pIC50 (MYB [2]; [7]) | AC50 (MYB [2]; [8]) | pIC50 (MYB [2]; [9]) | pIC50 (Target C [3]; Table 13A) | pIC50 (MYB [4]; Table 13A) | pIC50 (Target C [5]; [10]) | AC50 (HTT [6]; [8]) | pIC50 (HTT [6]; [11]) | pIC50 (HTT [6]; [12]) | pIC50 (SMN2; [10]) | pIC50 (HTT [1]; Table 13B) | pIC50 (MYB [2]; [13]) | pIC50 (Target C [3]; Table 13B) | pIC50 (MYB [4]; Table 13B) | pIC50 (Target C [5]; [14]) | pIC50 (HTT [6]; gene panel, CJ qPCR, protocol of Example 142, read-out: HTT IC50 (decrease in CJ mRNA levels)) | pIC50 (SMN2; [14]) |
| --- | --- | --- | --- | --- | --- | --- | --- | --- | --- | --- | --- | --- | --- | --- | --- | --- | --- | --- |
| C[C@H]1C[C@@H](N(C)c2ccc(-c3ccc(-n4cccn4)c4cc[nH]c34)nn2)CCN1 [Compound 111] | 5.00 to 6.00 | 5.00 to 6.00 | > 10 µM | 5.00 to 6.00 | 5.00 to 6.00 | 5.00 to 6.00 | < 5.00 | > 10 µM | – | – | – | – | – | – | – | – | – | – |
| CN(c1ccc(-c2ccc(-n3cccn3)c3cc[nH]c23)nn1)[C@@H]1C[C@H]2CC[C@@H](C1)N2 [Compound 113] | 5.00 to 6.00 | < 5.00 | > 10 µM | < 5.00 | 5.00 to 6.00 | 5.00 to 6.00 | – | – | – | – | – | – | – | – | – | – | – | – |
| C[C@@H]1C[C@H](N(C)c2ccc(-c3ccc(-c4cn[nH]c4)c4nn[nH]c34)nn2)CCN1 [Compound 115] | < 5.00 | < 5.00 | > 10 µM | < 5.00 | < 5.00 | < 5.00 | – | – | – | – | – | – | – | – | – | – | – | – |
| C[C@@H]1C[C@H](N(C)c2ccc(-c3ccc(-n4cccn4)c4nn[nH]c34)nn2)CCN1 [Compound 117] | 5.00 to 6.00 | 5.00 to 6.00 | 1 to 10 µM | 5.00 to 6.00 | 5.00 to 6.00 | 5.00 to 6.00 | 5.00 to 6.00 | 1 to 10 µM | – | – | – | – | – | – | – | – | – | – |
| CN(c1ccc(-c2ccc(-c3cn[nH]c3)c3nn[nH]c23)nn1)[C@@H]1C[C@H]2CC[C@@H](C1)N2 [Compound 118] | 5.00 to 6.00 | < 5.00 | 1 to 10 µM | < 5.00 | 5.00 to 6.00 | 5.00 to 6.00 | 5.00 to 6.00 | > 10 µM | – | – | – | – | – | – | – | – | – | – |
| C[C@@H]1C[C@H](N(C)c2ccc(-c3ccc(-c4cn[nH]c4)c4c3NC(=O)C4)nn2)CCN1 [Compound 121] | < 5.00 | < 5.00 | > 10 µM | < 5.00 | < 5.00 | < 5.00 | – | – | – | – | – | – | – | – | – | – | – | – |
| CN(c1ccc(-c2ccc(-c3cn[nH]c3)c3ccsc23)nn1)C1CC(C)(C)NC(C)(C)C1 [Compound 131] | – | < 5.00 | > 10 µM | < 5.00 | – | – | – | > 10 µM | 5.00 to 6.00 | 5.00 to 6.00 | 6.00 to 7.00 | – | – | – | – | – | – | – |
| CN(c1ccc(-c2ccc(-n3cccn3)c3cn[nH]c23)nn1)C1CC(C)(C)NC(C)(C)C1 [Compound 150] | – | 6.00 to 7.00 | 0.1 to 1 µM | 6.00 to 7.00 | – | – | – | 1 to 10 µM | 6.00 to 7.00 | 6.00 to 7.00 | 6.00 to 7.00 | – | – | – | – | – | – | – |
| C[C@@H]1C[C@H](N(C)c2ccc(-c3ccc(-c4cn[nH]c4)c(=O)[nH]3)nn2)CCN1 [Compound 901] | – | – | – | – | – | – | – | – | – | – | – | < 5.00 | < 5.00 | < 5.00 | < 5.00 | – | – | – |
| C[C@H]1C[C@@H](N(C)c2ccc(-c3ccc(-n4cccn4)c(=O)[nH]3)nn2)CCN1 [Compound 903] | – | – | – | – | – | – | – | – | – | – | – | < 5.00 | < 5.00 | < 5.00 | < 5.00 | < 5.00 | – | – |
| COc1nc(-c2ccc(N(C)[C@@H]3CCN[C@H](C)C3)nn2)ccc1-c1cn[nH]c1 [Compound 909] | – | – | – | – | – | – | – | – | – | – | – | 5.00 to 6.00 | 5.00 to 6.00 | 5.00 to 6.00 | 5.00 to 6.00 | – | 5.00 to 6.00 | 6.00 to 7.00 |
